Test results published in article PMC4426631, “Insect antimicrobial peptides show potentiating functional interactions against Gram-negative bacteria” (Proceedings of the Royal Society B: Biological Sciences, 2015).
Cf = 5(6)-carboxyfluorescein

Tested on: E. coli 498
Experiment: Bactericidal cell viability assay (CFU after 18 h), E. coli 498
Type: cell-based
Method: Initial coarse-level growth inhibition assays were carried out with concentrations of peptides up to 200 μM. Further assays of growth rates (bacteriostatic activity) and cell viability (bactericidal activity) were carried out on a finer scale. […] Growth rates were derived from spline-fitted growth curves to optical density (OD) data, while cell viability was assessed by plating cultures and counting colony-forming units after 18 h. Dose–response curves were fitted to both the bacteriostatic and bactericidal data with Markov Chain Monte Carlo parameter optimization (further details in electronic supplementary material). […]
v) Coarse growth inhibition assays. […]
The assa ys were carried out in 96-well plates (Griener Bio On e, Frick enh ausen, Germ an y) in an Eon™ Microplate Spectrophotometer (BioTek Instruments, VT, USA) for 16 h while r eco rding of changes in the OD600 at 20- min intervals. […] The AMPs used inthis assay are sh own in Tables S1and S4. vi) Dose response curv e quantif ication […]
1.25, 2.5, 5, 10, and 20 μM) in rows, and 10 µl volumes of hymenoptaecin (final concentrations of 0, 0.625, 1.25, 2.5, 5, and 10 μM) in columns. […] Th e OD600 was measured ever y hour for 12 consecutive hours using a SpectraMax M2e microplate reader (Molecular Devices, Sunnyvale, USA). […]
Cell viability. […] Bacteria were grown for 18 h with AMPs before the number of viable cells was assessed. […]

abaecin: proline-rich peptide abaecin, species version not specified at the place (Cf-FVPYNPPRPGQSKPFPSFPGHGPFNPKIQWPYPLPNPGH-NH2)
impact on cell viability, abaecin alone (E. coli 498, concentrations tested up to 20 µM, CFU after 18 h): no impact on cell viability
lowest abaecin concentration that enhanced the bactericidal effects of hymenoptaecin (E. coli, in combination with hymenoptaecin): 1.25 µM
